What was measured:
[1] = test system: CpA neuron (CO2 sensitive, does not express AgORco); test: single sensillum recordings, capitate peg sensilla, CpA neuron; type: in vivo, Anopheles gambiae; details: CO2 pulse at completion of assay, adult females
Procedure: (§1) Single sensillum recordings were performed on 4-7 day old, non-bloodfed Anopheles gambiae females maintained on 10% sucrose and a 12/12 light dark cycle. Legs, wings and antennae were removed from cold-anesthetized females that were then restrained on double-stick tape with thread. A glass reference electrode filled with Sensillar lymph ringers (SLR)(Xu, 2005) was placed in the eye and the recording electrode filled with DMSO or VUAA1 diluted in SLR was used to puncture sensilla at their base. Responses were recorded and digitized using a Syntech IDAC-4 and analyzed with AutoSpike software (Syntech). New glass recording pipettes were used for every recording. Data was sampled at 12 kHz.
(§2) The inventors next performed single unit, extracellular electrophysiological recordings on adult female An. gambiae to determine whether VUAA1 could activate AgORco-expressing odorant receptor neurons (ORNs) in vivo. ORNs, which express AgORco and a conventional OR are enclosed within the hair-like sensilla present on olfactory tissues. […] CpA is clearly distinguished from CpB/C by its large action potential amplitude. The action potential amplitudes of CpB and CpC are much smaller and in some preparations indistinguishable from each other; as a result, the spike activity of CpB and CpC neurons were binned for data analysis. […]

[2] = test system: AgORco-expressing neurons (CpB/C); test: single sensillum recordings, capitate peg sensilla, CpB/C neurons; type: in vivo, Anopheles gambiae; details: delivered via glass recording electrode, adult females
Procedure: as §1, §2

DmOR83b = target: T1, DmOR83b (Drosophila melanogaster, UniProt Q9VNB5); test: whole-cell patch clamp, HEK cells transiently transfected with DmOR83b; type: cell-based; details: HEK cells expressing DmOR83b, −60 mV
T1 construct: expressed in transfected cells; host or cells: Flp-In T-REx 293 (HEK), transient, pCI vector, GFP co-transfected
T1 sequence (Q9VNB5 1-486): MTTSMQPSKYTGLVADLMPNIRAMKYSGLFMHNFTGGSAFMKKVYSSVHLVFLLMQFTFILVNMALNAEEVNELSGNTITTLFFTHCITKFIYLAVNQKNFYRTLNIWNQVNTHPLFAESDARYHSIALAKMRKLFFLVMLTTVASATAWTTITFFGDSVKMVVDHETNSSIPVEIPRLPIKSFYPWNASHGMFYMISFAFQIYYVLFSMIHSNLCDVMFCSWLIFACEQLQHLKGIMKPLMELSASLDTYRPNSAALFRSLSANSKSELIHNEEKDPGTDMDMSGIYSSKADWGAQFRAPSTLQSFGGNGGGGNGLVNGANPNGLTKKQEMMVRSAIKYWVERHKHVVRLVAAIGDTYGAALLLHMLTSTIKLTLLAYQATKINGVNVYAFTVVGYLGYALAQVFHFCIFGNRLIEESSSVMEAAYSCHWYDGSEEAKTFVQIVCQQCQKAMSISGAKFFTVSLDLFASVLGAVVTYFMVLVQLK
Excerpt: For transient transfections, ORs were cloned into pCI (Promega) and transfected into Flp-In™ T-REx™293 cell lines (Invitrogen) with Fu GENE6 (Roche). For the creation of stable cell lines, a cell culture expression vector capable of expressing AgORco in conjunction with a conventional OR, pcDNA5/FRT/TO (Invitrogen) was modified to create two individual expression cassettes each under the control of a separate CMV/TetO2 promoter and a BGH poly-adenylation signal. Cells (as above) were transfected with the modified pcDNA5 plasmid along with POG44 (a Flp recombinase expression plasmid) to facilitate site-specific recombination. Stable cell lines were selected using Hygromycin B (Invitrogen). Cells were maintained in DMEM (Invitrogen) supplemented with 10% Tetracycline-free FBS (HyClone) and 15 μg/ml Blasticidin. […] Baseline readings were taken for 20 s before automated addition of compound previously diluted in DMSO and assay buffer. […]
Currents from OR-expressing HEK293 cells were amplified with an Axopatch 200b Amplifier (Axon Instruments) and digitized through a Digidata 1322A (Axon Instruments). Electrophysiological data was recorded and analyzed using pCLAMP 10 (Axon Instruments). […]

## CCc1ccc(NC(=O)CSc2nnc(-c3cccnc3)n2CC)cc1 [VUAA1]
[1]
  CpA activity: unchanged
[2]
  spike frequency of CpB/C neurons: increased the spike frequency of CpB/C neurons in a dose-dependent manner
DmOR83b
  whole-cell currents: robust inward currents

From patent US10091997B2, “Composition for inhibition of insect host sensing” (Vanderbilt University, priority 2010, dated 2018)
